Source: patent US20160106743A1, “TOPOISOMERASE II POISONS AND METHODS OF MAKING AND USING SAME” (THE UNIVERSITY OF ROCHESTER, priority 2014, published 2016)
“Also recorded” adds a separate entry of the source.

How the values were obtained:
[1] = target: T1, Human Top2-α (Homo sapiens, UniProt P11388); assay: Human Top2-α decatenation of kinetoplastid DNA (gel electrophoresis, densitometry); assay type: biochemical; conditions: increasing concentrations of Compound 1, 37° C. for 15 min, FIG. 1
T1 construct: purchased Topogen, Inc; Port Orange Fla
Description: Human Top2-α decatenation of kinetoplastid DNA (kDNA) was visualized by gel electrophoresis. Human Top2-α (Topogen, Inc; Port Orange Fla.) was added to 0.2 μg of kDNA in the presence of 1% DMSO (vehicle control) without or with increasing concentrations of Compound 1. Reactions were incubated at 37° C. for 15 min and terminated by addition of an SDS buffer. Samples were resolved by 1% agarose 1×TAE gel electrophoresis and stained with ethidium bromide. Decatenated versus intact kDNA species were quantified by densitometry (FIG. 1).

[2] = system: Saccharomyces cerevisiae strain BY4741 overexpressing yeast TOP2; assay: Yeast dilution growth on agar media, cells overexpressing TOP2; assay type: cell-based; conditions: Compound 1 10 μM in 0.1% DMSO, growth recorded after 48 h, FIG. 3
Description: (§1) Three-fold dilutions of Saccharomyces cerevisiae strain BY4741 overexpressing yeast TOP1, TOP2, or TOP3 from plasmid vectors were plated on agar media containing either 0.1% DMSO or Compound 1 (10 μM) in 0.1% DMSO (FIG. 3). Growth was recorded after 48 h. TOP1, TOP2, and TOP3 overexpressing cells grew at approximately the same rate as cells carrying an empty vector (top panel). […] However, Compound 1 was toxic to cells overexpressing TOP2. This phenomenon is characteristic of TOP2 poisons that stabilize toxic Top2cc adducts.

[3] = system: Saccharomyces cerevisiae strain BY4741 overexpressing yeast TOP1; assay: Yeast dilution growth on agar media, cells overexpressing TOP1; assay type: cell-based; conditions: Compound 1 10 μM in 0.1% DMSO, growth recorded after 48 h, FIG. 3
Description: as §1

[4] = system: Saccharomyces cerevisiae strain BY4741 overexpressing yeast TOP3; assay: Yeast dilution growth on agar media, cells overexpressing TOP3; assay type: cell-based; conditions: Compound 1 10 μM in 0.1% DMSO, growth recorded after 48 h, FIG. 3
Description: as §1

[5] = system: Saccharomyces cerevisiae strain BY4741 carrying an empty vector; assay: Yeast dilution growth on agar media, cells carrying an empty vector; assay type: cell-based; conditions: Compound 1 10 μM in 0.1% DMSO, growth recorded after 48 h, FIG. 3
Description: as §1

[6] = system: yeast cells expressing native levels of Top2; assay: Yeast culture growth rate, native levels of TOP2 (empty expression vector); assay type: cell-based; conditions: FIG. 4
Source text: (§2) Yeast cultures overexpressing native TOP2 (TOP2) or an empty expression vector (empty) were exposed to increasing concentrations of Compound 1 (FIG. 4). […] This is an unusual property for a TOP2 poison, most or all of which are lethal at high concentrations.

[7] = system: yeast cells overexpressing TOP2; assay: Yeast culture growth rate, TOP2 overexpressed from a plasmid vector; assay type: cell-based; conditions: increasing concentrations of Compound 1, FIG. 4
Source text: as §2

[8] = target: T2, purified yeast Top2 (Saccharomyces cerevisiae, UniProt P06786); assay: Plasmid DNA (pUC18) cleavage by purified yeast Top2 (double strand breaks, linear form); assay type: biochemical; conditions: 10 μM etoposide or 1, 10 or 100 μM Compound 1, 150 ng purified yeast Top2, FIG. 5
T2 sequence (P06786 1-1428): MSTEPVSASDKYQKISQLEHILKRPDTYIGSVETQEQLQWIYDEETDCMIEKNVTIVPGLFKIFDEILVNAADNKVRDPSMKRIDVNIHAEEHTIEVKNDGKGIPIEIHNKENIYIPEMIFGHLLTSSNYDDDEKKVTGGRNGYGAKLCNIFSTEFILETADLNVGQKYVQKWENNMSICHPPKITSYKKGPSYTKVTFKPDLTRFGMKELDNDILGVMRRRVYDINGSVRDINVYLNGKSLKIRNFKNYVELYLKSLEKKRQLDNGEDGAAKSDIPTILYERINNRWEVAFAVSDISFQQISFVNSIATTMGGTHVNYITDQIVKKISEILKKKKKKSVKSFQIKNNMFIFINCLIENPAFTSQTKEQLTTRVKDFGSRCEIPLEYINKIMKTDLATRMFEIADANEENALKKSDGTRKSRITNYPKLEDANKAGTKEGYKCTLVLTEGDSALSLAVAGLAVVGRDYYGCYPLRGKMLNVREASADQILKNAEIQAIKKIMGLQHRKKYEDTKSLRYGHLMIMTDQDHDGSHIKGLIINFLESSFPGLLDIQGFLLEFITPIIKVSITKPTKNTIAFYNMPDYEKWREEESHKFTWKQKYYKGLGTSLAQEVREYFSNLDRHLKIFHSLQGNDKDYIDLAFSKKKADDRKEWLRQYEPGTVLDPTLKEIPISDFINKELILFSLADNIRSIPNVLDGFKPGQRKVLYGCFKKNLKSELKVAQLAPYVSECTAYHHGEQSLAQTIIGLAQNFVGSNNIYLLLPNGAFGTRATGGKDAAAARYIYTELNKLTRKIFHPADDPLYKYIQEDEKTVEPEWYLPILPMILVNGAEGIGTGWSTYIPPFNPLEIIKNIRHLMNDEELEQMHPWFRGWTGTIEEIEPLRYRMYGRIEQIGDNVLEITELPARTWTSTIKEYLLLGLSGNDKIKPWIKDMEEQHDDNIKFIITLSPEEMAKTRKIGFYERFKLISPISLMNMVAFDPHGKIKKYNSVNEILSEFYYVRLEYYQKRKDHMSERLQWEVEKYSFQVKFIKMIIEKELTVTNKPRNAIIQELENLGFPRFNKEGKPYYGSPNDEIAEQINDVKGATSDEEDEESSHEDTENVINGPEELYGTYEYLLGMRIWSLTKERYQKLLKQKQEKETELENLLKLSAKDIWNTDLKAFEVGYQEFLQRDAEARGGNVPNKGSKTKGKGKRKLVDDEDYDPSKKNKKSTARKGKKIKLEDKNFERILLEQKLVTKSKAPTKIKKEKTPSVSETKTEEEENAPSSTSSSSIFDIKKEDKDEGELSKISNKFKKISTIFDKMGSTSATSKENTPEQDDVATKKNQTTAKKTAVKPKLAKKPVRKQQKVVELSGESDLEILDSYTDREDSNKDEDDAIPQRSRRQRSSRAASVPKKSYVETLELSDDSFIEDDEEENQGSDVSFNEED
Description: Supercoiled (sc) plasmid DNA (pUC18) was exposed to 10 μM etoposide or 1, 10 or 100 μM Compound 1 in the presence and absence of 150 ng of purified yeast Top2 as described (Nitiss et al. (2012) Curr Protoc. Pharmacol. Chapter 3: Unit 3.3) (FIG. 5). TOP2 poisons induce Top2cc adducts containing double strand breaks. Double strand DNA breaks convert supercoiled (sc) pUC18 to a linear (lin) form.

[9] = system: Human HT1080 fibrosarcoma cells; assay: HT1080 cell viability, alone and combined with doxorubicin, vinblastine or etoposide; assay type: cell-based; set-up: viability of HT1080 cells, compound alone: dose or concentration left out as unconfirmed
Description: Human HT1080 fibrosarcoma cells were exposed for 48 hrs to DMSO (vehicle control), 0.5 μM doxorubicin, 0.5 nM vinblastine, and/or Compound 1 at the indicated concentrations (FIGS. 6A-6C, respectively). Viable cells remaining on the plates were quantified after 48 hrs. […] (FIG. 6B) Compound 1 enhances doxorubicin toxicity at concentrations as low as 2.5 μM. 10 μM Compound 1 enhances doxorubicin cytotoxicity several fold. […] The vinblastine results are inconsistent with Compound 1 acting by inhibition of multidrug resistance pumps, which, when inhibited, increase the toxicity of multiple cytotoxic drugs including vinblastine. […] Average values and standard deviation of the means are plotted. P-values determined by student t-test are shown for doxorubicin enhancement (B). DMSO (A) and doxorubicin (B) data were based on the average of 6 biological replicates. Vinblastine data (C) was based on three biological replicates.

[10] = system: Noncancer MJT cells (primary foreskin fibroblasts); assay: MJT noncancer cell viability with and without doxorubicin; assay type: cell-based, human
[11] = system: puc118-based plasmid DNA; assay: Topoisomerase I (Top1) DNA unwinding assay for intercalation; conditions: 15 min at 25° C., then 1 h with added Top1, FIG. 2
Source text: Samples were resolved by electrophoresis through 1% agarose 1×TAE gel and species *, **, and *** quantitated by densitometry (FIG. 2). Top1 alone (Lane 2) converts the DNA to a relaxed form (**) and some residual intermediate relaxed species (***).

T1 sequence (P11388 whole entry): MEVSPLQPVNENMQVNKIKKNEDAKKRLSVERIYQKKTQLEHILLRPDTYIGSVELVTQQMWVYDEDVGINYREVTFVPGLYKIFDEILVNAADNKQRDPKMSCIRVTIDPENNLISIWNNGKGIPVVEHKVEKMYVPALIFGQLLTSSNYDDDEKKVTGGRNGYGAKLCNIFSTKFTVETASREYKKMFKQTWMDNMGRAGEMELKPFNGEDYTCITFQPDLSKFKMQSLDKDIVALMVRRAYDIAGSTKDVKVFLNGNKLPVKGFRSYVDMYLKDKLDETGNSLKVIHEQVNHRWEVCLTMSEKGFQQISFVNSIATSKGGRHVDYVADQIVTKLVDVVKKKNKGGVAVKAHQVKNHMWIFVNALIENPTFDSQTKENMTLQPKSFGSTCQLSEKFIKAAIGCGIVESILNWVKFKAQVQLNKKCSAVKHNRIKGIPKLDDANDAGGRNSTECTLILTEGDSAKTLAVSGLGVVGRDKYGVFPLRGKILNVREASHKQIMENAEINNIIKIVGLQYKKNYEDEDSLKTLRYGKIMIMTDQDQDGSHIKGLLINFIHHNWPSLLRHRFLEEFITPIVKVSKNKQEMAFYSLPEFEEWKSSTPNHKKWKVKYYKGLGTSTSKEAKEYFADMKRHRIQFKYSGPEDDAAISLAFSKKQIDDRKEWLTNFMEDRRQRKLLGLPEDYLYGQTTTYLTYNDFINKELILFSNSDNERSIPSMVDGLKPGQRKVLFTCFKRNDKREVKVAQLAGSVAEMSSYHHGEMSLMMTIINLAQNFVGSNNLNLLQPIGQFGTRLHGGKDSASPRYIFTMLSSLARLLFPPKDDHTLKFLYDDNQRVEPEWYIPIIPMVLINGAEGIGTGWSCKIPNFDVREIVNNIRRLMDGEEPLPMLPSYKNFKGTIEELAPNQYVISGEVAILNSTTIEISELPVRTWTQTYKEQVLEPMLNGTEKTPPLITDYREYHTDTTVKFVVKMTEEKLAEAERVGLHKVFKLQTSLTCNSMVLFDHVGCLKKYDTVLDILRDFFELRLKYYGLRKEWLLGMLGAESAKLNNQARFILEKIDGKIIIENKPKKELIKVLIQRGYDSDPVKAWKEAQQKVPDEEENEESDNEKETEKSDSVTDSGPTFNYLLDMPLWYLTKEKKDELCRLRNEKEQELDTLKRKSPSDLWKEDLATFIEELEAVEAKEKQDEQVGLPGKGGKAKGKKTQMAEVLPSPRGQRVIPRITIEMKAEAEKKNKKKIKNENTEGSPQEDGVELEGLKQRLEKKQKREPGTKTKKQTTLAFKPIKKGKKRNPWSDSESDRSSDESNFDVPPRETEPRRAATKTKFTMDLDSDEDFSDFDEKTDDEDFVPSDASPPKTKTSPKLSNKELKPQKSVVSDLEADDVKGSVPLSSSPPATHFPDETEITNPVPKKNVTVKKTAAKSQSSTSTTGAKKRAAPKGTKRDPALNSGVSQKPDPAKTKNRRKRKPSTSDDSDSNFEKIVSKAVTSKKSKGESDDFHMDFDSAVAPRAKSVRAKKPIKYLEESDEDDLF

SMILES | inhibition of decatenation of kinetoplastid DNA by human Top2-α [1] | growth of cells overexpressing TOP2 on agar [2] | growth of cells overexpressing TOP1 on agar [3] | growth of cells overexpressing TOP3 on agar [4] | growth of cells carrying an empty vector on agar [5] | growth in cells expressing native levels of Top2 at high concentrations ([6]; concentrations as high as 100 μM) | growth rate in cells expressing native levels of Top2 ([6]; concentrations below 10 μM) | growth in cells overexpressing TOP2 from a plasmid vector [7] | formation of the linear form of pUC18 (stable double strand breaks, Top2cc adducts) [8] | enhancement of doxorubicin cytotoxicity ([9]; 10 μM Compound 1, 0.5 μM doxorubicin, 48 hrs, FIG. 6B) | viability of HT1080 cells, compound alone ([9]; 48 hrs, DMSO vehicle, FIG. 6A) | lowest concentration enhancing doxorubicin toxicity ([9]; 48 hrs, with 0.5 μM doxorubicin, FIG. 6B) [µM] | enhancement of HT1080 cell killing at multiple doxorubicin concentrations ([9]; various concentrations of doxorubicin and Compound 1, FIG. 6D) | enhancement of vinblastine toxicity ([9]; with 0.5 nM vinblastine, 48 hrs, FIG. 6C) | toxicity to MJT cells, compound alone ([10]; performed as in Example 6, FIG. 7) | enhancement of doxorubicin toxicity in MJT cells ([10]; various concentrations of doxorubicin with and without Compound 1, FIG. 7) | unwinding of plasmid DNA in presence of Top1 (intercalation) [11]
c1ccc2nc3c(nc2c1)[nH]c1ccccc13 [Compound 1, 6H-indolo[2,3-b]quinoxaline] | inhibits human Top2-α at Micromolar Concentrations; also recorded: inhibited by increasing concentrations | toxic | no effect on the growth | no effect on the growth | no effect on the growth | cells continue to thrive | partial dose-dependent inhibition of growth rates | almost completely arrests growth | induced yeast Top2 to form the linear form of pUC18 | several fold | no effect on the viability | 2.5 | dose-dependent enhancement | does not enhance vinblastine toxicity | not itself toxic | nor does it enhance the toxicity of doxorubicin | do not unwind the DNA
COc1cccc2c1C(=O)c1c(O)c3c(c(O)c1C2=O)C[C@@](O)(C(=O)CO)C[C@@H]3O[C@H]1C[C@H](N)[C@H](O)[C@H](C)O1 [doxorubicin] |  |  |  |  |  |  |  |  |  |  |  |  |  |  |  |  | DNA is unwound
COc1cc([C@@H]2c3cc4c(cc3[C@@H](O[C@@H]3O[C@@H]5CO[C@@H](C)O[C@H]5[C@H](O)[C@H]3O)[C@H]3COC(=O)[C@H]23)OCO4)cc(OC)c1O [etoposide, reference compound] |  |  |  |  |  |  |  |  | induced yeast Top2 to form the linear form of pUC18 |  |  |  |  |  |  |  | do not unwind the DNA
